Where a SMILES comes first, the peptide text is derived from it. Where no end group is shown, it is not given here. [ ]: non-standard residue; d: D form.
Key:
[1] = molecular target: T1, FPR (Homo sapiens, UniProt P21462); test: [Ca2+]i increase in FPR-expressing RBL-2H3 cells (fura-2); format: cell-based; details: for EC50 (nM), intracellular calcium increase: fura-2 loaded
T1 construct: expressed in transfected cells; host or cells: RBL-2H3 (rat basophilic leukemia) cells, G418-selected
T1 sequence (P21462 1-350): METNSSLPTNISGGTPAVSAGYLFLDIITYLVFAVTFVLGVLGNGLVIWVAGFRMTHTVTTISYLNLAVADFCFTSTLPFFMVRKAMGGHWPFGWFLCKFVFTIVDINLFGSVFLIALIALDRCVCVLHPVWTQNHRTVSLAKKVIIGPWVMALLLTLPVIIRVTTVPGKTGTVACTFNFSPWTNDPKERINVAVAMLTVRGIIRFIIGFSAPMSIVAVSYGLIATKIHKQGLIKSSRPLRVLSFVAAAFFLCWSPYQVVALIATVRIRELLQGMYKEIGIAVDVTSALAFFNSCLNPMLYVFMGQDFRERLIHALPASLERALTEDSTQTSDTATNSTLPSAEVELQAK
Description: FPR-expressing RBL-2H3 cells were stimulated with 10 μM of each peptide, and [Ca^2+]i was determined. The level of [Ca^2+]i was determined fluorometrically by Grynkiewicz's method using fura-2/AM (15). Briefly, prepared cells were incubated with 3 μM fura-2/AM at 37° C. for 50 min in a fresh serum-free RPMI 1640 medium under continuous stirring. 2×10^6 cells were aliquoted for each assay in Ca^2+-free Locke's solution (154 mM NaCl, 5.6 mM KCl, 1.2 mM MgCl2, 5 mM HEPES, pH 7.3, 10 mM glucose, and 0.2 mM EGTA). Fluorescence changes at the dual excitation wavelengths of 340 nm and 380 nm and the emission wavelength of 500 nm were measured, and the calibrated fluorescence ratio was translated into [Ca^2+]i. The peak level of the increased [Ca^2+]i was monitored.

[2] = molecular target: T1, FPR; test: Displacement of 125I-labeled WKYMVm binding to FPR (FPR-expressing RBL-2H3 cells); details: FIG. 2A
Description: From the finding that some of the peptides (WKGMVm (SEQ ID NO: 1), WKRMVm (SEQ ID NO: 11), D-Met^6 substituted peptides) could not induce a cytosolic calcium increase, it was checked whether the peptides can bind to FPR or not. Displacement of ^125I-labeled WKYMVm binding to FPR or FPRL1 by the peptides was monitored. FPR-expressing RBL-2H3 cells were incubated with [^125I] WKYMVm in the absence or presence of increasing amounts of unlabeled WKYMVm or the peptides of SEQ ID NOs: 1 to 24.
A ligand binding analysis was performed as modified from the previous report (16). The radioiodinated WKYMVm (^125I-labeled) was purchased from NEN Lifesciences (Boston, Mass.). Briefly, FPR- or FPRL1-expressing RBL-2H3 cells were seeded into 1×10^5 cells per well of a 24-well plate and cultured overnight. After blocking the cells with a blocking buffer (33 mM HEPES, pH 7.5, 0.1% BSA in RPMI) for 2 hr, a single concentration of ^125I-labeled WKYMVm was added to cells with a binding buffer (PBS containing 0.1% BSA) in the absence or presence of 50 μM unlabelled peptides and incubated for 3 hr at 4° C. with continuous shaking. Then the samples were washed 5 times with ice-cold binding buffer, and 200 μl of lysis buffer (20 mM Tris, pH 7.5, 1% Triton X-100) was added to each well. After 20 min of lysis at room temperature, the lysates were collected. Bound ^125I-labeled WKYMVm was measured for radioactivity for a γ-ray counter.

[3] = molecular target: T1, FPR; test: ERK phosphorylation in FPR-expressing RBL-2H3 cells (immunoblot); format: cell-based; details: for ERKs phosphorylation/activation: 10 μM peptides 2 min (WKYMVm time course 1 μM)
Description: Cultured RBL-2H3 cells were aliquoted into 2×10^6 cells and stimulated with the indicated concentrations of WKYMVm and the peptides of the present invention for the indicated lengths of time. FPR- or FPRL1-expressing RBL-2H3 cells were stimulated with 1 μM WKYMVm for various periods of time (FIG. 3A). Two cells were preincubated with a vehicle or 100 ng/ml of PTX (24 hr), 50 μM of LY294002 (15 min), 5 μM of GFX (15 min), 10 μM BAPTA/AM (60 min), or 50 μM PD98059 (60 min) prior to 1 μM of WKYMVm treatment (FIG. 3B). FPR- or FPRL1-expressing RBL2H3 cells were stimulated with 10 μM of the peptides of the present invention for 2 min or 5 min, respectively (FIG. 3C).
After stimulation, the cells were washed with serum-free RPMI and lysed in a lysis buffer (20 mM Hepes, pH 7.2, 10% glycerol, 150 mM NaCl, 1% Triton X-100, 50 mM NaF, 1 mM Na3VO4, 10 μg/ml leupeptin, 10 μg/ml aprotinin, and 1 mM phenylmethylsulfonyl fluoride). The detergent-insoluble materials were pelleted by centrifugation (12,000×g, 15 min, at 4° C.), and the soluble supernatant fraction was removed and stored at −80° C. or used immediately. Protein concentrations in the lysates were determined using the Bradford protein assay reagent.
Each sample ([…] of protein) was subjected to 10% SDS-PAGE and phosphorylated ERK was determined by an immunoblot analysis with an anti-phospho-ERK antibody. Protein samples were prepared for electrophoresis by addition of a concentrated sample buffer. The portions in the samples were then separated by an 10% SDS-polyacrylamide gel using the buffer system described by Laemmli (17).
Following the electrophoresis, a western blot analysis with an anti-ERK2 antibody was performed to confirm that the same amounts of samples were used for the experiments. The proteins were blotted onto nitrocellulose membranes. The nitrocellulose membranes were then blocked by incubation with TBS (Tris-buffered saline, 0.05% Tween-20) containing 5% non-fat dry milk. Subsequently, the membranes were incubated with anti-phospho-ERK antibody, anti-phospho-Akt antibody or anti-Akt antibody washed with TBS. For a PKC translocation assay, an antibody for PKC isozyme-specific was incubated. Antigen-antibody complexes were visualized after incubating the membrane with a 1:5000 diluted goat anti-rabbit IgG or goat anti-mouse IgG antibody coupled to horseradish peroxidase and using the enhanced chemiluminescence detection system.

[4] = molecular target: T1, FPR; test: Chemotaxis of FPR-expressing RBL-2H3 cells (modified Boyden chamber); format: cell-based; details: FPR-expressing RBL-2H3 cells; various concentrations
Description: Chemotaxis assays were performed using multiwell chambers (modified Boyden chamber assay) (Neuroprobe Inc., Gaithersburg, Md.) (18). Briefly, polycarbonate filters (8 μm pore size) were precoated with 50 μg/ml of rat type I collagen (Collaborative Biomedicals) in a HEPES-buffered RPMI 1640 medium. A dry coated filter was placed on a 96-well chamber containing different concentrations of peptides. RBL-2H3 cells expressing FPR or FPRL1 were suspended in RPMI at a concentration of 1×10^6 cells/ml of serum-free RPMI, and 25 μl of the suspension were placed onto the upper well of the 96-well chemotaxis chamber. After incubation for 4 hours at 37° C., non-migrated cells were removed by scraping them out, and cells that migrated across the filter were dehydrated, fixed, and stained with hematoxylin (Sigma, St. Louis, Mo.). The stained cells in five randomly chosen high power fields (HPF) (400×) in that well were then counted. […] The numbers of migrated cells were determined by counting them in a high power field (400×). The Data are presented as means ±SE of three independent experiments each performed in duplicate. The effect of the peptides of the present invention on cellular chemotaxis in FPR- or FPRL1-expressing RBL-2H3 cells was measured. Various concentrations of each peptide were used for the chemotaxis assay with FPR- or FPRL1-expressing RBL-2H3 cells. The numbers of migrated cells were determined by counting them in a high power field (400×). The Data are presented as means ±SE of two independent experiments each performed in duplicates.

Row | EC50 (nM), intracellular calcium increase [1] | ERKs phosphorylation/activation [3] | cellular chemotaxis [4] | Compound | [Ca^2+]i increasing activity [1] | inhibition of [^125I] WKYMVm binding [2] | concentration showing maximal [Ca^2+]i increase activity ([1]; data not shown) | time of maximal ERKs activity after peptide treatment ([3]; 1 μM WKYMVm) [min]
1 | inactive | stimulated ERKs phosphorylation | induced cellular chemotaxis | CSCC[C@H](NC(=O)CNC(=O)[C@H](CCCCN)NC(=O)[C@@H](N)Cc1c[nH]c2ccccc12)C(=O)N[C@H](C(=O)N[C@H](CCSC)C(N)=O)C(C)C [WKGMVm-NH2, Trp-Lys-Gly-Met-Val-D-Met-NH2] (H-WKGMV[dM]-NH2; N-terminus assumed) | did not effect a [Ca^2+]i increase until 20 μM treatment | inhibited binding of [^125I] WKYMVm in a concentration-dependent manner | – | –
2 | inactive | stimulated ERKs phosphorylation | induced cellular chemotaxis | WKYMVE-NH2 [WKYMVE-NH2, Trp-Lys-Tyr-Met-Val-Glu-NH2] | – | – | – | –
3 | inactive | stimulated ERKs phosphorylation | induced cellular chemotaxis | WKYMVR-NH2 [WKYMVR-NH2, Trp-Lys-Tyr-Met-Val-Arg-NH2] | – | – | – | –

Row | Compound | EC50 (nM), intracellular calcium increase [1] | ERKs phosphorylation/activation [3] | cellular chemotaxis [4] | [Ca^2+]i increasing activity [1] | inhibition of [^125I] WKYMVm binding [2] | concentration showing maximal [Ca^2+]i increase activity ([1]; data not shown) | time of maximal ERKs activity after peptide treatment ([3]; 1 μM WKYMVm) [min]
4 | CSCC[C@H](NC(=O)[C@H](CCCNC(=N)N)NC(=O)[C@H](CCCCN)NC(=O)[C@@H](N)Cc1c[nH]c2ccccc12)C(=O)N[C@H](C(=O)N[C@H](CCSC)C(N)=O)C(C)C [WKRMVm-NH2, Trp-Lys-Arg-Met-Val-D-Met-NH2] (H-WKRMV[dM]-NH2; N-terminus assumed) | inactive | stimulated ERKs phosphorylation | induced cellular chemotaxis | – | inhibited binding of [^125I] WKYMVm in a concentration-dependent manner | – | –
5 | CSCC[C@H](NC(=O)[C@H](Cc1ccc(O)cc1)NC(=O)[C@H](CCCCN)NC(=O)[C@@H](N)Cc1c[nH]c2ccccc12)C(=O)N[C@H](C(=O)N[C@H](CCSC)C(N)=O)C(C)C [WKYMVm-NH2, Trp-Lys-Tyr-Met-Val-D-Met-NH2, reference compound] | inactive | induced transient activation of ERKs | induced cellular chemotaxis | – | inhibited binding of [^125I] WKYMVm in a concentration-dependent manner | around 300 nM | 2
